Tests used:
Plasmodium falciparum [1] = test: Hit confirmation in dose-response curve in NF54 nanoGlo assay, at 72h; type: functional, organism-based, Erythrocyte; design: timepoint 72 hour; conditions: Plasmodium falciparum, NF54, Erythrocyte, 72 h
Plasmodium falciparum [2] = test: Hit confirmation in dose-response curve in NF54 nanoGlo assay, at 12h; type: functional, organism-based, Erythrocyte; design: timepoint 12 hour; conditions: Plasmodium falciparum, NF54, Erythrocyte, 12 h
Plasmodium falciparum [3] = test: Hit confirmation in dose-response curve in Dd2 pLDH assay, at 72h; type: functional, organism-based, Erythrocyte; design: timepoint 72 hour; conditions: Plasmodium falciparum, Dd2, Erythrocyte, 72 h
[4] = Hit confirmation in dose-response curve in HepG2 cytotoxicity assay, at 72h; type: toxicity, cell-based, Homo sapiens; design: timepoint 72 hour; conditions: human, HepG2 cells
Plasmodium falciparum [5] = test: Hit confirmation in dose-response curve in NF54 pLDH assay, at 72h; type: functional, organism-based, Erythrocyte; design: timepoint 72 hour; conditions: Plasmodium falciparum, NF54, Erythrocyte, 72 h

SMILES | IC50 (Plasmodium falciparum [1]) | IC50 (Plasmodium falciparum [2]) | IC50 (Plasmodium falciparum [3]) | IC50 (Plasmodium falciparum [5]) | IC50 at 72 h [4]
Cc1cccc(Nc2ccnc(Nc3ccc(N4CCN(C)CC4)cc3)n2)c1 | 1.15 µM | > 10 µM | 1.23 µM | 1.29 µM | > 10 µM
N#Cc1cccc(Cl)c1N1CCC(N2CCCC2)CC1 | 3.02 µM | > 10 µM | 3.8 µM | 3.89 µM | > 10 µM
COc1ccc2c(N3CC[C@H](CN4CCCC4)C3)ccnc2c1 | 0.525 µM | 0.794 µM | 0.417 µM | 0.589 µM | > 10 µM
CN1CCN(c2ccc(C(F)(F)F)cc2NCc2cnc[nH]2)CC1 | 4.07 µM | 6.61 µM | 4.27 µM | 4.68 µM | > 10 µM
Oc1ccc(C2=CCN(Cc3cccc4[nH]ccc34)CC2)cc1 | 7.24 µM | > 10 µM | 5.75 µM | 10 µM | > 10 µM
CC(C)CCOc1ccc2[nH]c(-c3cc(N4CCC[C@@H]4CS(C)(=O)=O)ccn3)cc2c1 | 0.661 µM | 1.86 µM | 0.891 µM | 1.12 µM | > 10 µM
CCN1CCC[C@H](Nc2cccc(-n3ccnc3)n2)C1 | 3.63 µM | 7.08 µM | 3.8 µM | 4.37 µM | > 10 µM
CN(C)CCN1CCC(NC2CCC(O)(c3cccc(Cl)c3)CC2)CC1 (stereo not given) | 5.01 µM | > 10 µM | 3.72 µM | 4.47 µM | > 10 µM
CC(C)(C)c1ccc(CNC[C@H](O)c2ccc(F)cc2F)cc1 | 0.891 µM | 1.45 µM | 1.95 µM | 2.82 µM | > 10 µM
COC(CN(Cc1nc(N)nc(Nc2ccc(C)cc2)n1)Cc1nc(N)nc(Nc2ccc(C)cc2)n1)OC | 0.912 µM | > 10 µM | 1.45 µM | 3.47 µM | > 10 µM
Cc1sc2nc(-c3ccccn3)nc(NCCc3nccn3C)c2c1-c1ccccc1 | 3.24 µM | 8.91 µM | 3.55 µM | 8.71 µM | 8.32 µM
O[C@@H](CNCc1ccc2c(c1)CCO2)c1ccc(F)c(F)c1 | 2.29 µM | 5.62 µM | 3.72 µM | 8.32 µM | > 10 µM
Brc1cccc(NCCNC2CCN(Cc3cccnc3)CC2)c1 | 3.8 µM | 8.51 µM | 3.72 µM | 3.8 µM | > 10 µM
Clc1ccc2[nH]c3c(c2c1)CCCC3NC1CCN(C2CCOC2)CC1 (stereo not given) | 1.82 µM | 3.8 µM | 2.63 µM | 2.75 µM | 10 µM
O=C(NCc1cccc(-c2cccnc2)c1)N[C@H]1CCN(C2CCCCC2)C1 | 3.98 µM | > 10 µM | 4.47 µM | 1.29 µM | > 10 µM
O[C@H]1CCN(Cc2ccccc2CNc2cccc(-n3ccnc3)n2)C1 | 1.41 µM | 3.63 µM | 2.19 µM | 2.24 µM | > 10 µM
CN1CCC(N(C)C[C@H](Nc2ncnc3ccccc23)c2ccccc2)CC1 | 0.977 µM | 1.62 µM | 1.23 µM | 1.7 µM | > 10 µM
Cn1nnc(C(=O)N2CCCCC23CCCCCC3)n1 | 2.24 µM | > 10 µM | 2.29 µM | 5.5 µM | > 10 µM
CN(C)C1(CNc2nc(C(F)(F)F)nc3cc4c(cc23)OCO4)CCCCCC1 | 2.95 µM | > 10 µM | 3.47 µM | 1.26 µM | > 10 µM
CN([C@@H](c1ccccc1)c1ccccc1Br)S(=O)(=O)c1c[nH]c2ncccc12 | 7.08 µM | > 10 µM | 7.41 µM | 9.77 µM | > 10 µM

Now from value to molecule, other results behind:

IC50 (Plasmodium falciparum [1]) | IC50 (Plasmodium falciparum [2]) | IC50 (Plasmodium falciparum [3]) | IC50 (Plasmodium falciparum [5]) | SMILES | IC50 at 72 h [4]
1.74 µM | > 10 µM | 1.58 µM | 1.91 µM | CC(CNc1nc(NCC(C)N2CCOCC2)c2cc(Cl)ccc2n1)N1CCOCC1 (stereo not given) | > 10 µM
1.82 µM | 3.09 µM | 3.24 µM | 2.19 µM | NCC1(O)CCN(c2ccnc3cc(F)c(Cl)cc23)CC1 | > 10 µM
2.19 µM | 4.17 µM | 4.07 µM | 6.92 µM | Cc1cc(NC[C@H](O)COc2ccc(F)cc2)nc2ccccc12 | > 10 µM
3.89 µM | 10 µM | 3.8 µM | 4.17 µM | O[C@H]1CCN(Cc2cccc(NCc3cn4ccnc4s3)c2)C1 | > 10 µM
0.513 µM | 0.776 µM | 0.955 µM | 0.977 µM | CCc1oc2ccccc2c1CNC[C@H](O)c1ccc(Cl)cc1 | > 10 µM
2.45 µM | 4.47 µM | 3.63 µM | 4.57 µM | Cc1ccc2[nH]c(CNC[C@@H](CO)C3CCC3)cc2c1C | > 10 µM
4.47 µM | 10.2 µM | 4.17 µM | 5.89 µM | C[C@H](Nc1nc(N)c2ccccc2n1)c1cccc(-n2cncn2)c1 | > 10 µM
2.75 µM | 5.13 µM | 3.8 µM | 5.13 µM | O[C@@]1(c2c[nH]nn2)CCN(c2ccnc3cc(Cl)ccc23)C1 | > 10 µM
4.37 µM | 10.2 µM | 6.17 µM | 9.12 µM | Cc1cc(N2CCC(NC3CCNC(c4ccccc4)C3)CC2)nc(C)n1 (stereo not given) | > 10 µM
0.676 µM | 0.955 µM | 2.19 µM | 1.55 µM | O=C(Nc1cnc2c(c1)COCC2)c1cc2c(OC(F)(F)F)cccc2[nH]1 | > 10 µM
3.31 µM | > 10 µM | 4.37 µM | 6.46 µM | Cc1ccc2nc(-c3cccc(NC(=O)c4ccc(OC(F)(F)F)c(Cl)c4)c3)[nH]c2n1 | > 10 µM
3.89 µM | 10 µM | 5.5 µM | 6.46 µM | CC(C)(C)n1ncc2c(NCc3ccc4cccnc4c3O)ncnc21 | 6.31 µM
2.14 µM | 3.31 µM | 3.02 µM | 4.27 µM | Cc1ocnc1CNC[C@H](O)c1ccc(Cl)c(Cl)c1 | > 10 µM
4.07 µM | 6.61 µM | 3.31 µM | 3.63 µM | OCCN1CCC(NCCc2cc(Cl)cc(Cl)c2)CC1 | > 10 µM
2.19 µM | 5.37 µM | 1.78 µM | 2.29 µM | CCCN1CCC(Nc2cc(C)nc3ccccc23)CC1 | > 10 µM
1.17 µM | 2.04 µM | 1.17 µM | 1.7 µM | COCCCN1CCC(Nc2ncnc3cc(C)c(C)cc23)CC1 | > 10 µM
1.17 µM | 3.31 µM | 2.4 µM | 2.45 µM | COc1ccc2nc(C)cc(NCc3cccc(NC(=O)c4ccco4)c3)c2c1 | > 10 µM
2.34 µM | 3.98 µM | 3.31 µM | 3.72 µM | OC[C@H](CNCc1cc2ccc(F)cc2[nH]1)c1ccccc1Cl | > 10 µM
